The term IC50 denotes the concentration that inhibits the measured activity by half. As usually defined, the Vmax is the rate approached at saturating substrate.

This is an account of results in paper PMC9655717, “New Molecules of Diterpene Origin with Inhibitory Properties toward α-Glucosidase” (International Journal of Molecular Sciences, 2022).

One data set can be described thus: MTT cytotoxicity assay. Particulars: human. How it is done:
The cytotoxic activity of compounds was evaluated against four cancer cell lines KB, Hep-G2, Lu-1 and MCF-7, using colorimetric MTT assay. […]
MTT assay was used to determine the cytotoxic activity of compounds with human cancer cell lines acquired from the American Type Culture Collection (ATCC): epidermoid carcinoma (KB, ATCC number CCL-17), hepatocellular carcinoma (HepG2, ATCC number HB-8065), lung adenocarcinoma LU-1 (ATCC number HTB - 57TM), breast adenocarcinoma MCF-7 (ATCC number HTB - 22TM. Cells were cultured in medium DMEM supplemented with 10% Fetal bovine serum (FBS), 1% Penicillin and Streptomycin and 1% L-glutamine, under a humidified atmosphere of 5% CO2 at 37°C.
Compounds were dissolved in DMSO at 40 mg/mL and a series of dilutions for each compound was prepared to final concentrations of 256, 64, 16, 4 and 1 μg/mL. Cells were separated with trypsin and seeded in each well with 3 x10^4 cells per ml and were treated with sample different concentrations on 96-well plates. Untreated cells represented the controls. After 72h of treatment, an MTT solution (10 μl, 5 mg/mL) of phosphate buffer was added to each well for 4 h until intracellular purple formazan crystals are visible. Remove MTT and add DMSO solution (100 μL). The optical density of the solution was determined by Epoch™ Microplate Spectrophotometer at 540 nm. The inhibition ratio was calculated based on the optical densities from the three replicate […]
are evaluated to have cytotoxic activity.
Background: Tetrazolium dyes change colour on reduction, which living cells bring about.

Data set [1] deals with T1, α-glucosidase (Sigma G0660) (Saccharomyces cerevisiae, UniProt P53341).
T1 construct: purchased Sigma G0660
T1 sequence (P53341 whole entry): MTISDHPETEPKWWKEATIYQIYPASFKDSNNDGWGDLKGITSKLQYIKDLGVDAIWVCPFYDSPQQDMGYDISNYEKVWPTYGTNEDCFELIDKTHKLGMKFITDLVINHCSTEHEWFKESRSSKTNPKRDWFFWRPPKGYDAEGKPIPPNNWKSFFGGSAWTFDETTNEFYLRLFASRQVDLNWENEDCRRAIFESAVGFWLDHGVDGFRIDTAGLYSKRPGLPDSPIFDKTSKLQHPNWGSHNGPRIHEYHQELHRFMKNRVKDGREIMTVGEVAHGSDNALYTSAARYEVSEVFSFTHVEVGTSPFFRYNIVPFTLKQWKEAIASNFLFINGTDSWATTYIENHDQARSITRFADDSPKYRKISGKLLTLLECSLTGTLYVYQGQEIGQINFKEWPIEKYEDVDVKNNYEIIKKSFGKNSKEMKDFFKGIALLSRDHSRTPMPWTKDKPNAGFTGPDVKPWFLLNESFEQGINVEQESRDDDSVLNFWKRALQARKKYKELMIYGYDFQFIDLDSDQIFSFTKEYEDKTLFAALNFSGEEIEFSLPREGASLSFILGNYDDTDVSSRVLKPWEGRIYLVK
Nature of the data set: Kinetic study of α-glucosidase inhibition (Michaelis-Menten, pNPG). The data set is classed as biochemical, yeast. The procedure: The method’s principle based on the hydrolyzed reaction of 4-nitrophenyl-α-D-glucopiranoside with α-glucosidase enzyme into yellow 4- […]
The kinetic assay was performed according to the method using a series of […]
μL of 100 mM phosphate buffer (pH 6.8), 25 μL of α-glucosidase (0.4 U/mL, Sigma G0660) were pre-incubated for 10 min at 37 °C. DMSO was added to the respective control wells to a 0.64% final concentration. The reaction was initiated with the addition of 25 μL of p-nitrophenyl-[…] (pNPG, Sigma N1377) solution in a range of final concentrations. The amount of released p-nitrophenol from pNPG was immediately measured at 410 nm with Infinite M200 PRO (Tecan, Austria). Conversion of optical density to nM p-nitrophenol was performed with a standard curve. Reaction rates were determined from the linear parts of kinetic curves and fitted to the Michaelis-Menten equation. The assay was performed in triplicate wells and two independent […]
Ligands were prepared with MarvinSketch 18.8.0 (ChemAxon Ltd.). Ligands were hydrogenized and conformations with minimal potential energy were obtained using the MMFF94 force field. The homology model of S. cerevisiae α-glucosidase was obtained with SWISS-MODEL as described previously. Protein and ligand structures followed standard preparation procedure using AutoDocTools 1.5.6. We used AutoDock Vina 1.1.211 to perform all docking runs. The grid box with 70×80×80 Å dimensions was centered on the enzyme molecule to include the entire 3D space around the protein. The top-score binding poses were used in subsequent analysis. […]
(Dassault Systemes Biovia Corp.).
DPPH (0.1 mM) was diluted in methanol. 200 μL of this solution was added to 1.3 μL of various concentrations of compounds in DMSO (256.0, 64.0, 16.0, and 4.0 μg/mL). The mixture was performed by a 96-well plate at 25 °C in 30 min. […]

In brackets after ≈: the same amount, converted by molar mass.

For `C#CCOC(=O)C1(C)CCCC2(C)C1CCC13C=C(C(C)C)C(CC12)c1c(O)cc2c(C(=O)OC)c(C)[nH]c2c13` (centres unmarked) [Compound 45, Methyl 7-propynyl 1-hydroxy-13-isopropyl-7,10a,2′-trimethyl-5,6,6b,7,8,9,10,10a,10b,11,12,13-dodecahydro-12,4b-ethenophenanthro [2,1-g]indole-7,1′-dicarboxylate], the IC50 at 72 h is 47.2 ± 1 µg/mL (≈ 86.8 µM) in the data set “MTT cytotoxicity assay” (Hep-G2 hepatocellular carcinoma cells (ATCC HB-8065)), 42.2 ± 0.84 µg/mL (≈ 77.6 µM) in “MTT cytotoxicity assay” (KB epidermoid carcinoma cells (ATCC CCL-17)), 16 ± 0.36 µg/mL (≈ 29.4 µM) in “MTT cytotoxicity assay” (Lu-1 lung adenocarcinoma cells (ATCC HTB-57)) and 30.2 ± 0.8 µg/mL (≈ 55.6 µM) in the data set “MTT cytotoxicity assay” (MCF-7 breast adenocarcinoma cells (ATCC HTB-22)). Also, the Vmax in data set [1] (Compound 45 at 25 μM) is 2.277 nM/min; in data set [1] (Compound 45 at 50 μM) it was 2.221 nM/min; in data set [1] (Compound 45 at 100 μM), 2.249 nM/min. Also, in data set [1] (Michaelis-Menten nonlinear regression), the “mechanism of α-glucosidase inhibition” value is recorded as “competitive inhibitor”.
